Here are results for 15 compounds from patent US4101552A, “Novel lysergic acid amides and process for preparing same” (Richter Gedeon Vegyeszeti Gyar Rt., priority 1975, dated 1978).

Molecules are shown by their SMILES.

In one series the test system is serotonin oedema. As to the kind of experiment: Antiserotonin effect in vivo: rat-sole oedema (serotonin oedema blocking).
Another series relates to blood pressure of cats. Nature of the series: Antihypertensive effect: blood pressure of anaesthetized cats. The series is classed as in vivo, cat. How it is done: Antihypertensive effect
Method: the blood pressure of cats anaesthetized with
intraperitoneally administered 30 mg/kg of pento-
barbital was measured in the left femoral artery
by means of the Statham P 23 db manometer and re-
corded on Hellige polygraph. The compounds were
administered into the right femoral vein.
Number of animals: 2 to 5 per dose.

In series [1] the test system is renal circulation, cerebral blood-vessels, blood-vessels of other organs. As to the kind of experiment: Effect on renal circulation and blood-vessels of organs. The following applies: in vivo. Here is the method: (§1) It is characteristic of one of the compounds of the present invention and having a hypotensive action that when administered in intravenous doses of 0.1 to 0.5 mg/kg to cats and dogs in pentothal anaesthesia it provokes a permanent decrease of 20 to 60 mmHg in blood pressure (Table 3). […] It might therefore be assumed that the hypotensive effect of the compound according to the invention is the result of its inhibiting effect on the sympathetic cerebral centres. These properties are the most characteristic of the dihydro-lysergic-acid-(3'-/pyrrolid-2"-on-1"-yl/-propyl)-amide bimaleate (Example 1).

Series [2] concerns hypertension produced by stimulation of the baroreceptors and the central vagus stump. As to the kind of experiment: Inhibition of hypertension produced by stimulation of the baroreceptors and the central vagus stump. The conditions noted are these: in vivo. How it is done: as §1
Series [3] concerns acute hypertension produced by the infusion of angiotensin. Nature of the series: Inhibition of acute hypertension produced by infusion of angiotensin. The conditions noted are these: in vivo.
For series [4], the system named is alpha- or beta-sympatholytic, ganglion-blocking or adrenergic neuron-blocking action. As to the kind of experiment: Sympatholytic, ganglion-blocking and adrenergic neuron-blocking action. The conditions noted are these: in vivo. How it is done: as §1
Series [5] concerns catecholamine content of the organs. As to the kind of experiment: Catecholamine content of the organs. The following applies: in vivo.
Another series has as its system reserpine hypothermia. As to the kind of experiment: Antidepressant test: antagonization of reserpine hypothermia. The conditions noted are these: 30 mg/kg, intraperitoneally. In kind it is in vivo. How it is done: Antidepressant effect (Δt, ° C) and acute toxicity
Antidepressant test: antagonization of reserpine hypothermia
Dose: 30 mg/kg, intraperitoneally
Δt, ° C: change in body temperature compared to that of
Description of the method: ASKEW, B.M., Life Sci. 10, 725

The next series concerns isolated rat uterus. Nature of the series: Antiserotonin effect in vitro on isolated rat uterus. The conditions noted are these: read-out: In vitro ED50 (antiserotonin effect). The source says:
It is characteristic of the compound that its effect is well measurable even after oral administration, indicating its ready peroral absorption.
In vitro: on isolated rat uterus
Description of the method; GADDUM, J. H. and HAMMED, L. A.: […]

The nature of series [6]: Acute toxicity: LD50 on mice after 24 hours. The following applies: mouse, in vivo. How it is done:
Acute toxicity: LD50 on mice after 24 hours.
Description of the method: […], J.T.jr. and
WILCOXON, F.J., Pharmacol. exp.

Setting [7] is: po, rat-sole oedema, peroral, serotonin creatinine sulphate 5 μg per sole in 0.1 ml.
[8] abbreviates: sc, rat-sole oedema, subcutane, serotonin creatinine sulphate 5 μg per sole in 0.1 ml.

In the series with serotonin oedema (setting [7]), `CC[C@@H](CO)NC(=O)[C@@H]1C=C2c3cccc4c3c(cn4C)C[C@H]2N(C)C1` (racemic) [Deseryl, N-[1-(hydroxymethyl)propyl]-1-methyl-d-/+/-lysergamide, reference compound] showed an ED50 of 0.64 mg/kg. Moreover, the “Serotonin oedema blocking effect ED50” value in the series on serotonin oedema (rat-sole oedema, subcutane, serotonin creatinine sulphate 5 μg per sole in 0.1 ml) is given as 0/026.

Consider `CN1C[C@H](C(=O)N[C@]2(C)O[C@@]3(O)[C@@H]4CCCN4C(=O)[C@H](Cc4ccccc4)N3C2=O)C[C@@H]2c3cccc4[nH]cc(c34)C[C@H]21` [Dihydroergotamine, reference compound], for which, in the series on blood pressure of cats (0.2 mg/kg i.v.), the “Decrease in blood pressure” value is -25 mmHg and the “Decrease in blood pressure, duration” value stood at 0.5 h.

In the case of `CN1C[C@H](C(=O)NCCCN2CCCC2=O)C[C@@H]2c3cccc4[nH]cc(c34)C[C@H]21` [Example 1, 9,10-Dihydrolysergic-acid-(3'-/pyrrolid-2"-on-1"-yl/-propyl)-amide bimaleate], in series [1], the “effect on cerebral blood-vessels and blood-vessels of other organs” value is “does not cause a constriction of the cerebral blood-vessels or a substantial change in the blood-vessels of other organs”; the renal circulation result was “tends to improve renal circulation”. For the same compound, the “inhibition of hypertension produced by stimulation of the baroreceptors and the central vagus stump” value in series [2] was “inhibits hypertension produced by the stimulation of the baroreceptors and the central vagus stump”. In [3], the “inhibition of acute hypertension produced by infusion of angiotensin” value was “inhibits acute hypertension produced by the infusion of angiotensin”. In addition, the “alpha- or beta-sympatholytic, ganglion-blocking or adrenergic neuron-blocking action” value in series [4] is recorded as “no alpha- or beta-sympatholytic, ganglion-blocking or adrenergic neuron-blocking action”. In [5], the “catecholamine content of the organs” value is listed as “does not alter the catecholamine content of the organs”.

`CN1C[C@H](C(=O)NCCCN2CCCC2=O)C=C2c3cccc4[nH]cc(c34)C[C@H]21` [Example 2, Lysergic-acid-(3'-/pyrrolid-2"-on-1"-yl/-propyl)-amide bimaleate]: the “Antidepressant effect, Δt (change in body temperature compared to that of the control)” value in the series with reserpine hypothermia came out at 3.5 °C. Also, in the series with blood pressure of cats (0.5 mg/kg i.v.), the “Decrease in blood pressure” value is listed as -50 mmHg and the “Decrease in blood pressure, duration” value was determined as 1.5 h.

For `CN1C[C@H](C(=O)NCCCN2CCCC2=O)C[C@@H]2c3cccc4c3c(cn4C)C[C@H]21` [Example 3, 1-Methyl-9,10-dihydrolysergic-acid(3'-/pyrrolid-2"-on-1"-yl/propyl)-amide bimaleate], the IC50 in the series on isolated rat uterus was 5 ng/mL. For the same compound, it took a dose of 1.5 mg/kg to reach the 50% effect level with serotonin oedema (setting [7]) (ED50). For the same compound, in the series on serotonin oedema (setting [8]), the 50% effect level (ED50) was put at a dose of 0.3 mg/kg. Besides, in the series on blood pressure of cats (0.5 mg/kg i.v.), the “Decrease in blood pressure” value was -30 mmHg and the “Decrease in blood pressure, duration” value was 2.0 h.

Take `CN1C[C@H](C(=O)NC2=NCCS2)C[C@@H]2c3cccc4c3c(cn4C)C[C@H]21` [Example 4, 1-Methyl-9,10-dihydrolysergic-acid-(2'-thiazolin-2'-yl)-amide bimaleate]: in the series with reserpine hypothermia, the “Antidepressant effect, Δt (change in body temperature compared to that of the control)” value was found to be 4.1 °C. Moreover, the LD50 at 24 h in series [6] (ip, intraperitoneally) worked out at 330 mg/kg; in series [6] (po, orally), 315 mg/kg. The IC50 with isolated rat uterus was found to be 0.05 ng/mL. In addition, the “peroral efficacy (in words)” value in the series with serotonin oedema (peroral) is “particularly favourable peroral efficacy”. Also, the “peroral efficacy relative to Deseryl” value in the series with serotonin oedema (peroral, surpassing the efficacy of Deseryl) is “about 3.5 times”. Further, the ED50 was determined as 0.12 mg/kg in the series with serotonin oedema (setting [7]) and 0.022 mg/kg in the series on serotonin oedema (setting [8]).

Consider `CN1C[C@H](C(=O)NC2=NCCS2)C[C@@H]2c3cccc4[nH]cc(c34)C[C@H]21` [Example 5, 9,10-Dihydrolysergic-acid-(thiazolin-2'-yl)-amide bimaleate], for which, in the series on reserpine hypothermia, the “Antidepressant effect, Δt (change in body temperature compared to that of the control)” value amounted to 3.6 °C. Also, the IC50 with isolated rat uterus turned out to be 500 ng/mL. In addition, the ED50 in the series on serotonin oedema (setting [7]) was found to be 3 mg/kg; in the series with serotonin oedema (setting [8]), 0.3 mg/kg.

`C=CCOCC(O)CNC(=O)[C@@H]1C=C2c3cccc4[nH]cc(c34)C[C@H]2N(C)C1` (stereo partly shown) [Example 6, Lysergic-acid-(3'-allyloxy-2'-oxy-propyl)-amide bimaleate]: in the series on reserpine hypothermia, the “Antidepressant effect, Δt (change in body temperature compared to that of the control)” value came to 5.4 °C. The LD50 at 24 h turned out to be 110 mg/kg in [6] (ip, intraperitoneally) and 205 mg/kg in series [6] (po, orally).

As for `CN1C[C@H](C(=O)Nc2nccs2)C=C2c3cccc4[nH]cc(c34)C[C@H]21` [Example 7, Lysergic-acid-(thiazol-2'-yl)-amide bimaleate], the “Antidepressant effect, Δt (change in body temperature compared to that of the control)” value in the series on reserpine hypothermia amounted to 8.0 °C.

As to `CN1C[C@H](C(=O)Nc2nccs2)C[C@@H]2c3cccc4c3c(cn4C)C[C@H]21` [Example 9, 1-Methyl-9,10-dihydrolysergic-acid-(thiazol-2'-yl)-amide bimaleate], the “Antidepressant effect, Δt (change in body temperature compared to that of the control)” value in the series with reserpine hypothermia is 4.7 °C. Further, in the series on isolated rat uterus, the IC50 turned out to be 500 ng/mL. In addition, the ED50 in the series on serotonin oedema (setting [7]) worked out at 1 mg/kg. In the series with serotonin oedema (setting [8]), this compound showed an ED50 of 0.03 mg/kg. Moreover, in the series on blood pressure of cats (1.0 mg/kg i.v.), the “Decrease in blood pressure” value is -20 mmHg and the “Decrease in blood pressure, duration” value stood at 1.5 h.

Regarding `CN1C[C@H](C(=O)Nc2cccc3ncccc23)C=C2c3cccc4[nH]cc(c34)C[C@H]21` [Example 10, Lysergic-acid-(quinolin-5-yl)-amide bimaleate], the “Antidepressant effect, Δt (change in body temperature compared to that of the control)” value in the series on reserpine hypothermia came out at 3.9 °C.

On to `CN1C[C@H](C(=O)Nc2ccnn2-c2ccccc2)C=C2c3cccc4[nH]cc(c34)C[C@H]21` [Example 11, Lysergic-acid-(1'-phenyl-pyrazol-5'-yl)-amide bimaleate], for which the “Antidepressant effect, Δt (change in body temperature compared to that of the control)” value in the series on reserpine hypothermia was 2.9 °C.

Consider `Cc1ccc(NC(=O)[C@@H]2C=C3c4cccc5[nH]cc(c45)C[C@H]3N(C)C2)c(F)c1` [Example 12, Lysergic-acid-(2'-fluoro-4'-methyl-phenyl)-amide bimaleate], for which the “Antidepressant effect, Δt (change in body temperature compared to that of the control)” value with reserpine hypothermia was 6.9 °C. For the same compound, the LD50 at 24 h in [6] (ip, intraperitoneally) was determined as 30 mg/kg.

On to `CSc1cccc(NC(=O)[C@@H]2C=C3c4cccc5[nH]cc(c45)C[C@H]3N(C)C2)c1` [Example 13, Lysergic-acid-(3'-methyl-mercapto)-anilide bimaleate], for which the “Antidepressant effect, Δt (change in body temperature compared to that of the control)” value in the series with reserpine hypothermia is 7.0 °C.

`Cc1cc(O)ccc1NC(=O)[C@@H]1C[C@@H]2c3cccc4c3c(cn4C)C[C@H]2N(C)C1` [Example 14, 1-Methyl-9,10-dihydrolysergic-acid-(4'-m-cresyl)-amide bimaleate]: the “Antidepressant effect, Δt (change in body temperature compared to that of the control)” value in the series with reserpine hypothermia is 3.4 °C. Also, in the series on isolated rat uterus, the IC50 came out at 0.5 ng/mL. For the same compound, the ED50 with serotonin oedema (setting [7]) was determined as 3 mg/kg; with serotonin oedema (setting [8]), 0.3 mg/kg.
